Reference: EP0723539B1, “TRICYCLIC SULFONAMIDE COMPOUNDS USEFUL FOR INHIBITION OF G-PROTEIN FUNCTION AND FOR TREATMENT OF PROLIFERATIVE DISEASES” (SCHERING CORPORATION, priority 1993, dated 1995)

What was measured:
Ras-CVLS processing = experiment: Cell-based assay: Ras processing in Ras-transfected COS cells (immunoblot); design: species or system monkey; conditions: read-out: INHIBITION OF Ras PROCESSING IC50
Method: COS monkey kidney cells were transfected by electroporation with the plasmid pSV-SPORT (Gibco/BRL) containing a cDNA insert encoding either Ras-CVLS or Ras-CVLL, leading to transient overexpression of a Ras substrate for either farnesyl protein transferase or geranylgeranyl protein transferase I, respectively (see above).
Following electroporation, cells were plated into 6-well tissue culture dishes containing 1.5 ml of Dulbecco's-modified Eagle's media (GIBCO, Inc.) supplemented with 10% fetal calf serum and the appropriate farnesyl protein transferase inhibitors. After 24 hours, media was removed and fresh media containing the appropriate drugs was re-added. […]
Membranes were blocked by incubation overnight at 4°C in PBS containing 2.5% dried milk and 0.5% Tween-20 and then incubated with a Ras-specific monoclonal antibody, Y13-259 (Furth, M.E., et al., (1982), Monoclonal antibodies to the p21 products of the transforming gene of Harvey murine sarcome virus and of the cellular ras gene family, J. Virol. 43: 294-304), in PBS containing 1% fetal calf serum for one hour at room temperature. […] The presence of processed and unprocessed Ras-CVLS or Ras-CVLL was detected using a colorimetric peroxidase reagent (4-chloro-1-naphthol) as described by the manufacturer (Bio-Rad).

[1] = tested on: T24-BAG4 human bladder carcinoma cells expressing an activated H-ras gene; experiment: Cell Mat assay: inhibition of tumor cell growth; type: cell-based
Method: (§1) Normal human HEPM fibroblasts were planted in 3.5 cm dishes at a density of 5 x 10^4 cells/dish in 2 ml growth medium, and incubated for 3-5d to achieve confluence. Medium was aspirated from each dish and the indicator tumor cells, T24-BAG4 human bladder carcinoma cells expressing an activated H-ras gene, were planted on top of the fibroblast monolayer at a density of 2 x 10^3cells/dish in 2 ml growth medium, and allowed to attach overnight. Compound-induced colony inhibition was assayed by addition of serial dilutions of compound directly to the growth medium 24 h after tumor cell planting, and incubating cells for an additional 14 d to allow colony formation. Assays were terminated by rinsing monolayers twice with phosphate-buffered saline (PBS), fixing the monolayers with a 1% glutaraldehyde solution in PBS, then visualizing tumor cells by staining with X-Gal (Price, J., et al., Lineage analysis in the vertebrate nervous system by retrovirus-mediated gene transfer, Proc. Natl. Acad. Sci.84, 156-160(1987)). […] The therapeutic index of the compound was quantitatively expressed as the ratio of mIC50/tIC50, with values greater than one indicative of tumor target specificity.

[2] = target: T1, farnesyl protein transferase (FPT) (Rattus norvegicus, UniProt Q02293+Q04631); experiment: In vitro enzyme assay: inhibition of farnesyl protein transferase (transfer of [3H]farnesyl to Ras-CVLS); type: biochemical
T1 construct: partially purified rat brain farnesyl protein transferase (FPT); from tissue; host or cells: rat brain
Description: (§2) Both farnesyl protein transferase (FPT) and geranylgeranyl protein transferase (GGPT) I were partially purified from rat brain by ammonium sulfate fractionation followed by Q-Sepharose (Pharmacia, Inc.) anion exchange chromatography essentially as described by Yokoyama et al (Yokoyama, K., et al., (1991), A protein geranylgeranyltransferase from bovine brain: Implications for protein prenylation specificity, Proc. Natl. Acad. Sci USA 88: 5302-5306, the disclosure of which is incorporated herein by reference thereto). Two forms of val^12-Ha-Ras protein were prepared as substrates for these enzymes, differing in their carboxy terminal sequence. One form terminated in cysteine-valine-leucine-serine (Ras-CVLS) the other in cystein-valine-leucine-leucine (Ras-CVLL). […]
Several methods for measuring farnesyl protein transferase activity have been described (Reiss et al 1990, Cell 62: 81; Schaber et al 1990, J. Biol. Chem. 265: 14701; Manne et al 1990, PNAS 87: 7541; and Barbacid & Manne 1993, U.S. Patent No. 5,185,248). […] Filter mats were washed once with 6% TCA, 2% SDS and radioactivity was measured in a Wallac 1204 Betaplate BS liquid scintillation counter. Percent inhibition was calculated relative to the DMSO vehicle control.

[3] = tested on: Normal human HEPM fibroblasts; experiment: Cell Mat assay: inhibition of normal cell growth (cell mat); type: cell-based; conditions: Fibroblast, normal cell monolayer
Method: as §1

[4] = target: T2, geranylgeranyl protein transferase (GGPT) I (Rattus norvegicus, UniProt P53610+Q04631); experiment: In vitro enzyme assay: inhibition of geranylgeranyl protein transferase I (Ras-CVLL as acceptor); type: biochemical; conditions: Ras-CVLL as isoprenoid acceptor, read-out: inhibits GGPT
T2 construct: geranylgeranyl protein transferase (GGPT) I were partially purified from rat brain; from tissue; host or cells: rat brain
Description: as §2, with “(Ras-CVLL). Ras-CVLS is a substrate for the famesyl protein transferase while Ras-CVLL is a substrate for geranylgeranyl protein transferase I. The cDNAs encoding these proteins were constructed so that the proteins contain an amino-terminal extension of 6 histidine residues. Both proteins were expressed in Escherichia coli and purified using metal chelate affinity chromatography. The radiolabelled isoprenyl pyrophosphate substrates, [3H]farnesyl pyrophosphate and [^3H]geranylgeranyl pyrophosphate, were purchased from DuPont/New England Nuclear.” for “(Ras-CVLL).”

IC50 (Ras-CVLS processing) [µM]	IC50 ([1]; Homo sapiens, Ras-transformed tumor cells) [µM]	FPT IC50 ([2]; partially purified rat brain FPT, Ras-CVLS farnesylation) [µM]	inhibition at 42 µM [4] [%]	selective for FPT inhibition ([2]; FPT versus GGPT)	SMILES	IC50 [3] [µM]	antiproliferative activity against Ras-transformed cells (in words) [1]
0.01 to 10	6.3	0.01 to 10	–	–	C=CS(=O)(=O)N1CCC(=C2c3ccc(Cl)cc3CCc3cccnc32)CC1 [Compound 2.9]	25	–
–	–	–	14	at least 32 fold	O=S(=O)(Cc1ccccc1)N1CCC(=C2c3ccc(Cl)cc3CCc3cccnc32)CC1 [Compound 2.12]	–	only weak antiproliferative activity
